The target in test [1] is T1, mGluR5 (Rattus norvegicus, UniProt P31424). As to the kind of experiment: mGluR5 radioligand displacement binding assay with [3H]MPEP. The settings on record: for decrease in binding affinity compared to the phenyl analogue: 17 v. 22, 18 v. 25. In general terms: In a radioligand displacement assay an active substance lowers the binding of a labelled ligand.
Test [2] addresses T1, mGluR5. Kind of test: mGluR5 functional assay, calcium fluorescence. Type of test: cell-based.
Where [3] appears, read: read-out: mGluR5 binding affinity Ki±SEM, [3H]MPEP, rat brain membranes or HEK293-T cells transfected with cloned rat mGluR5.
Setting [4] is: read-out: mGluR5 function (Ca+2 flux) IC50±SEM, inhibition of glutamate-induced calcium mobilization.

For orientation: Ki means a measure of affinity in units of concentration, obtained from inhibition or displacement. In general, IC50 refers to the concentration that inhibits the measured activity by half.

“Also recorded” adds a separate entry of the source. Read-outs that look alike come from different tables or passages of the source.

T1 sequence (P31424 21-1203): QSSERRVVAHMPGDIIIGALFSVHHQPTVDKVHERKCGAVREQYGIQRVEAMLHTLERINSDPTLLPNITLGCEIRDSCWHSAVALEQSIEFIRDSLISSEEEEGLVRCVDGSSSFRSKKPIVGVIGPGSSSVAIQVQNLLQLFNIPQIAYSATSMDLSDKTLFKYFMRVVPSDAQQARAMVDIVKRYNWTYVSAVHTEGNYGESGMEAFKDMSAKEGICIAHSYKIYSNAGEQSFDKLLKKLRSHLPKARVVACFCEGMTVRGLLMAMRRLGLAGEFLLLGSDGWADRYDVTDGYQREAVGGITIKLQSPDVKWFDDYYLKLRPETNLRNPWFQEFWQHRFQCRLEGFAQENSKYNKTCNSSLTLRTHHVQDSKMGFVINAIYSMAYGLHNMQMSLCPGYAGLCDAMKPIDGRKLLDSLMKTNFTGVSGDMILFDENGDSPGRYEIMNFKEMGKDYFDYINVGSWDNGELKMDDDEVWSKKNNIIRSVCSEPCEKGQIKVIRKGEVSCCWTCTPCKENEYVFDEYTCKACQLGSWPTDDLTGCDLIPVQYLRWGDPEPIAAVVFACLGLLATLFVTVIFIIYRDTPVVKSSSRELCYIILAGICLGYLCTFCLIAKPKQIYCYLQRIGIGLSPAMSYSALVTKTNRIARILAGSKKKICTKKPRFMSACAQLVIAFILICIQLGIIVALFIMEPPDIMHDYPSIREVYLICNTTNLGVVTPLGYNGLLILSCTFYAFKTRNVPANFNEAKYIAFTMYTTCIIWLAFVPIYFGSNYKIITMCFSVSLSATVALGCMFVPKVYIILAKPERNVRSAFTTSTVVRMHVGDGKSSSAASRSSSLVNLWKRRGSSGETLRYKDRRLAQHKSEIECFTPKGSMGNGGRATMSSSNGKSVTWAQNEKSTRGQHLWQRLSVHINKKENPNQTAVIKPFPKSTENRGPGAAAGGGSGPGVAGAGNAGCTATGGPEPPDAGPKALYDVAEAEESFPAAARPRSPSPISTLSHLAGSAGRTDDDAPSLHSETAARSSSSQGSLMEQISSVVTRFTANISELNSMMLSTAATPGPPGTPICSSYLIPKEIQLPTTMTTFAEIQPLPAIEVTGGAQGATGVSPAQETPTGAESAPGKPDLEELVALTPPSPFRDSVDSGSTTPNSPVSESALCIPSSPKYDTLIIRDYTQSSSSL

On to `Cc1ccc2ccc(-c3ccc(OCc4ccccc4)c(C#N)c3)cc2n1` [compound 17, 2-Benzoxy-5-(2-methylquinolin-7-yl)benzonitrile], for which, on mGluR5 [1], the “decrease in binding affinity compared to the phenyl analogue” value was ~ 10 fold. Take “2-Phenyl-4-(2-methylbenzo[d]thiazol-5-yl)benzonitrile [compound 25]”: the “increase in binding affinity compared to parent structure 4” value on mGluR5 [1] (25 v. 4) was ~ 4 fold. For the same molecule, the Ki on mGluR5 [1] (setting [3]) stood at 483 ± 98 nM. In addition, the IC50 at mGluR5 [2] (setting [4]) is 6890 ± 1250 nM. For `Cc1ccc2ccc(-c3cnc(Cl)c(C#N)c3)cc2n1` [compound 31, 2-Chloro-5-(2-methylquinolin-7-yl)nicotinonitrile], on mGluR5 [2] (glutamate-induced mGluR5 activity), the “mode of mGluR5 antagonism (full or partial)” value was “partial antagonist activity; also recorded: weak partial antagonist”. With `Cc1nc2cc(-c3ccc(OCc4ccccc4)c(C#N)c3)ccc2s1` [compound 18, 2-Benzoxy-5-(2-methylbenzo[d]thiazol-5-yl)benzonitrile], at mGluR5 [1], the “decrease in binding affinity compared to the phenyl analogue” value worked out at 15 fold. On mGluR5 [1], `Cc1ccc2ccc(-c3cncc(C#N)c3)cc2n1` [compound 30, 5-(2-Methylquinolin-7-yl)nicotinonitrile] returned a Ki of 100 ± 21 nM. Also, on mGluR5 [2], the IC50 came to 68 ± 5.3 nM. Take “2-(Pyridin-3-yl)-4-(2-methylbenzo[d]thiazol-5-yl)benzonitrile [compound 26]”: the “activity at mGluR5 in words” value on mGluR5 [1] is “completely inactive”. Also, the Ki at mGluR5 [1] (setting [3]) is above 10000 nM. Besides, the IC50 on mGluR5 [2] (setting [4]) is above 10000 nM.

The values are drawn from paper PMC2871681 (Bioorganic & medicinal chemistry, 2010).
